The target in series [1] is Arabidopsis thaliana IspD (Arabidopsis thaliana, UniProt P69834). To be noted: read-out: AtIspD IC50, cited from earlier work.
The target in series [2] is Lycopersicon esculentum IspE (LeIspE) (Solanum lycopersicum, UniProt P93841). Description: Thermal shift assay against LeIspE. Type of series: binding.
The next series deals with LeIspE (Solanum lycopersicum, UniProt P93841). The experiment in a line: University of Hamburg photometric enzymatic inhibition assay LeIspE. The class given is biochemical, Lycopersicon esculentum. To be noted: read-out: LeIspE IC50. In short, it runs like this:
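Photometric coupled assay with pyruvate kinase/lactate dehydrogenase following NADH (460 μM). Mix: 100 mM Tris-HCl pH 8.0, 10 mM MgCl2, 1 mM DTT, 2.5 mM phosphoenolpyruvate, 2 mM ATP, 1 mM 4-diphosphocytidyl-2-C-methylerythritol, 1.1% DMSO, 2.4 mU IspE; incubated at 27° C.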

A further series has as its target AtIspD (Arabidopsis thaliana, UniProt P69834). Description: University of Hamburg photometric enzymatic inhibition assay AtIspD. The class given is biochemical. As to conditions: read-out: AtIspD IC50. In short, it runs like this:
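Coupled photometric assay: 2.4 mU AtIspD with 1 mM (2R,3S)-2,3-dihydroxy-4-oxopentyl phosphate, 2.1 mM CTP, excess IspE (0.4 U), ATP, pyruvate kinase/lactate dehydrogenase and 460 μM NADH. Run in 100 mM Tris-HCl pH 8.0, 10 mM MgCl2, 1 mM DTT, 1.1% DMSO at 27 °C, monitored photometrically.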

Series [3] has as its target Mycobacterium paratuberculosis IspD (MpIspD) (Mycolicibacterium paratuberculosis, UniProt Q743W5). The experiment in a line: Thermal shift assay against MpIspD. The class given is binding.
Series [4] has as its system Corynebacterium pseudodiphtheriae. The experiment in a line: Antibacterial preliminary screening CP.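 Also: 0 is no inhibition and 3 matches the commercial antibiotic control.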 Type of series: cell-based. As to conditions: score 0-3.
In a further series the test system is Pseudomonas aeruginosa. Description: Antibacterial preliminary screening PA. Also: key: 0 represents no inhibition; 3 is comparable to commercial antibiotic control. The class given is cell-based. To be noted: score 0-3.
Another series addresses AtIspF (Arabidopsis thaliana, UniProt Q9CAK8). Description: University of Hamburg photometric enzymatic inhibition assay AtIspF. To be noted: read-out: AtIspF IC50. The class given is biochemical. In short, it runs like this:
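Coupled photometric assay (CMP kinase/pyruvate kinase/lactate dehydrogenase, NADH consumption) with 2.4 mU AtIspF and 1 mM 4-diphosphocytidyl-2C-methylerythritol 2-phosphate, 2 mM ATP, in 100 mM Tris-HCl pH 8.0, 10 mM MgCl2, 1.1% DMSO. Monitored at 27 °C.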

The test system of another series is lettuce seeds. The experiment in a line: Lettuce leaf assay. Type of series: in vivo. Also noted: key: 0 (no effect); 5(complete inhibition or bleaching). As to conditions: ranking 0-5. An outline of the steps:
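Qualitative assay: compounds in volatile organic solvent applied to filter paper in a petri dish, solvent evaporated, lettuce seeds and 5 mL water added to give test concentrations. Germination, root development and leaf bleaching scored days 3 and 4, ranked 0 (no effect) to 5 (complete inhibition or bleaching).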

The test system of series [5] is IspE of Mycobacterium abscessus. The experiment in a line: STD-NMR fragment screening MaIspE. Type of series: binding. As to conditions: Fragments of Life library screening.
The next series relates to Klebsiella pneumonia. The experiment in a line: Antibacterial preliminary screening KP. Also: key: 0 represents no inhibition; 3 is comparable to commercial antibiotic control. Type of series: cell-based. To be noted: score 0-3.
Another series has as its system Corynebacterium xerosis. The experiment in a line: Antibacterial preliminary screening CX. Also: key: 0 represents no inhibition; 3 is comparable to commercial antibiotic control. The class given is cell-based. As to conditions: score 0-3.
Series [6] deals with T1, Mycobacterium tuberculosis IspD (MtIspD) (Mycobacterium tuberculosis, UniProt P9WKG9).
T1 sequence (P9WKG9 1-231): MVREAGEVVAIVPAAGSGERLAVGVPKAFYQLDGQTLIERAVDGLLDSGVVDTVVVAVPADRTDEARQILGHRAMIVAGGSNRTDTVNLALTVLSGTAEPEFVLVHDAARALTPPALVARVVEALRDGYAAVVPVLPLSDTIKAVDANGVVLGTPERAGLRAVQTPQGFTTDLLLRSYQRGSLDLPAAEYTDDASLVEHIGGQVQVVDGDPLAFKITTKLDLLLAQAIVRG
The experiment in a line: Thermal shift assay against MtIspD. The class given is binding.

In another series the test system is Micrococcus luteus. The experiment in a line: Antibacterial preliminary screening ML. Also: key: 0 represents no inhibition; 3 is comparable to commercial antibiotic control. Type of series: cell-based. As to conditions: score 0-3.
The target of series [7] is IspD of Mycobacterium paratuburculosis (Mycolicibacterium paratuberculosis, UniProt Q743W5). Description: STD-NMR fragment screening MpIspD. Type of series: binding. To be noted: Fragments of Life library screening.
The test system of series [8] is Burkholderia thailandensis. The class given is cell-based. As to conditions: preliminary screening, score 0-3.
The subject of a further series is Escherichia coli. Description: Antibacterial preliminary screening EC. Also: key: 0 represents no inhibition; 3 is comparable to commercial antibiotic control. The class given is cell-based. To be noted: score 0-3.
The subject of the next series is Mycobacterium smegmatis. The experiment in a line: Antibacterial preliminary screening MS. Also: key: 0 represents no inhibition; 3 is comparable to commercial antibiotic control. Type of series: cell-based. As to conditions: score 0-3.
The test system of the next series is Bacillus cereus. The experiment in a line: Antibacterial preliminary screening BC. Also: key: 0 represents no inhibition; 3 is comparable to commercial antibiotic control. Type of series: cell-based. To be noted: score 0-3.
The target in another series is E. coli IspD (Escherichia coli, UniProt Q46893). The experiment in a line: IspD assay (Washington University, EnzCheck phosphate) EcIspD. Type of series: biochemical. To be noted: up to 100 μM; bar graph at 12.5 and 100 μM. As for the experimental part: Compounds were tested against IspD from Escherichia coli and Plasmodium falciparum. The assay measured activity through monitoring phosphate levels released by IspD enzyme over time using conditions published previously. The assay utilized the EnzCheck phosphate assay kit to quantify phosphate released by IspD. Reactions were done in a 96-well plate with each well containing a final volume of 50 μL. Concentrations of reagents were as follows: 100 mM NaCl, 25 mM Tris at pH 7.0, 7.5 mM MgCl2, 1 mM dithiothreitol, 1 U/mL purine nucleoside phosphorylase, and 0.1 U/mL yeast inorganic pyrophosphatase, 50 μM CTP, 500 μM MEP, 0.1% DMSO, and 0.2 mM 2-Amino-6-mercapto-7-methyl puring riboside. Reactions with EclspD used 2 nM EclspD and reactions with PfIspD used 50 nM PfIspD. Reactions involved pre-warming the enzyme and buffers to 37° C. with different inhibitor concentrations followed by the addition of the purified MEP substrate. Absorbance was measured at 360 nm over time and values were used to create regression analysis curves from three trials and values were converted to (μM MEP)(μM enzyme)^−1s^−1 using a standard phosphate curve. These values were then used to identify percent activity compared to enzyme activity without the inhibitor. Results are indicated.

Another series has as its target P. falciparum IspD (Plasmodium falciparum, UniProt Q8I273). Description: IspD assay (Washington University, EnzCheck phosphate) PfIspD. Type of series: biochemical.

Like-named read-outs stand apart in the source and are kept apart here.

Sequence of Lycopersicon esculentum IspE (LeIspE) (P93841 89-401): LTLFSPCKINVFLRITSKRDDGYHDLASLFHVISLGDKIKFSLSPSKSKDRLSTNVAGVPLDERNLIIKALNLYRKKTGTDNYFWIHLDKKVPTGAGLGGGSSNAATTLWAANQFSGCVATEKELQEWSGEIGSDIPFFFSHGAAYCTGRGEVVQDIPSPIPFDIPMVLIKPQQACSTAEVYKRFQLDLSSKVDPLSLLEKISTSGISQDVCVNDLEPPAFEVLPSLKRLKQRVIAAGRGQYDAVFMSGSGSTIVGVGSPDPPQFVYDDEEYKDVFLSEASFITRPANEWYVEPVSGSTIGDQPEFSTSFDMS
Sequence of AtIspD (P69834 62-302): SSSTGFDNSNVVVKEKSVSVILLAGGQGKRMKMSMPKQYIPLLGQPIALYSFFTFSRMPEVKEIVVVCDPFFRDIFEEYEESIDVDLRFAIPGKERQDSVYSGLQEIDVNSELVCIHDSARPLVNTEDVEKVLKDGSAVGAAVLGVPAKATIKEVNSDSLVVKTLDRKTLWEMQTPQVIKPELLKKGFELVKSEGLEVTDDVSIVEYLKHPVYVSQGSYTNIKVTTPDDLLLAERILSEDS
Sequence of Arabidopsis thaliana IspD (P69834 62-302): as above
Sequence of LeIspE (P93841 89-401): as the sequence (P93841 89-401) above
Sequence of AtIspF (Q9CAK8 53-231): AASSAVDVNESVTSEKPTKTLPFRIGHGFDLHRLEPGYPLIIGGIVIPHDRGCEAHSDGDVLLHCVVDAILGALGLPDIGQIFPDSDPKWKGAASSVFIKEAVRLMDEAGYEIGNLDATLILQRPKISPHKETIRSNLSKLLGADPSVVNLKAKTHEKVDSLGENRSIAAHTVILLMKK
Sequence of IspD of Mycobacterium paratuburculosis (Q743W5 whole entry, the tested form may be a part): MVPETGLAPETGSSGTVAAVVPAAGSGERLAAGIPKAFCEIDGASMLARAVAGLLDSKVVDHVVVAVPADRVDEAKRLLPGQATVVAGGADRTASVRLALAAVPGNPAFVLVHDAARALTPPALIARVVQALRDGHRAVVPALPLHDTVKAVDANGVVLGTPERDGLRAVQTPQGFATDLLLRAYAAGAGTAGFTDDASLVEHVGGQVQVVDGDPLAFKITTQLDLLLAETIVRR
Sequence of Mycobacterium paratuberculosis IspD (MpIspD) (Q743W5 whole entry): as the sequence (Q743W5 whole entry, the tested form may be a part) above
Sequence of E. coli IspD (Q46893 whole entry): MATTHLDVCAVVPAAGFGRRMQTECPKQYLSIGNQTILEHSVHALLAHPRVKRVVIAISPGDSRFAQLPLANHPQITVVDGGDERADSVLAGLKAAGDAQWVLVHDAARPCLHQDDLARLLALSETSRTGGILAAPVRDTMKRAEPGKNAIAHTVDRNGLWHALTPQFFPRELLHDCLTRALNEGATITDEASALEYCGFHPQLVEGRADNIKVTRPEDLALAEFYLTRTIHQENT
Sequence of P. falciparum IspD (Q8I273 entry or part of it): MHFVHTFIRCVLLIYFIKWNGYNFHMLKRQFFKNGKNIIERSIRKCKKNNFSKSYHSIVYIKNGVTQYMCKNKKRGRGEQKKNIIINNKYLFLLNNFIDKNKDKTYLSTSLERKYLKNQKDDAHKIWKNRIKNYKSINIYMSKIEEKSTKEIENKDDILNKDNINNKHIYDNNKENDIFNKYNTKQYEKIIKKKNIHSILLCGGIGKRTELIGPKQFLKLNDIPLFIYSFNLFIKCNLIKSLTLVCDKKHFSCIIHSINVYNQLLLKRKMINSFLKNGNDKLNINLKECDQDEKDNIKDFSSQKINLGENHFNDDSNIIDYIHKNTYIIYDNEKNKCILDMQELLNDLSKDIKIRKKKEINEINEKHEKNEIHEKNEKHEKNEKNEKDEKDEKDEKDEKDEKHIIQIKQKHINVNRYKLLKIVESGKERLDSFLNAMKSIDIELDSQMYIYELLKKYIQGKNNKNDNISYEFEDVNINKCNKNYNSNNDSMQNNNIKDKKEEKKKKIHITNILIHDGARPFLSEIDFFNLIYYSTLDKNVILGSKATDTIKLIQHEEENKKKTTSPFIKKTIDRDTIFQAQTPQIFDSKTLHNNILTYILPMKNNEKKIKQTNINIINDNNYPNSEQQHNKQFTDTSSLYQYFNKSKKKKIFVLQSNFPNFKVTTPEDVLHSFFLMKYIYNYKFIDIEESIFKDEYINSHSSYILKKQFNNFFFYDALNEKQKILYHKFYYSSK

What is called IC50 is the midpoint of a concentration-inhibition curve. `Oc1c(Br)cc(Br)cc1-c1[nH]c(Br)c(Br)c1Br` [pentabromopseudilin]: the IC50 in series [1] (with 40 μM Cd2+ added) is 1.4 ± 0.2 µM; in series [1] (without a metal added), 13 ± 2 µM.
For orientation: melting point means the temperature, or range, at which the solid turns liquid. On to `c1ccc2[nH]c(-c3nnco3)cc2c1` [HGN-207, 2-(1H-indol-2-yl)-1,3,4-oxadiazole], for which the melting point was 205 to 207 °C. In addition, in [2], the “LeIspE melting point change” value was −1.25 °C and the LeIspE melting temp turned out to be 48.25 °C. Moreover, at LeIspE, the IC50 is greater than 1000 µM. Further, on AtIspD, the IC50 was greater than 1 mM. For the same compound, the “MpIspD thermal shift (positive shift)” value in series [3] is 0.8 °C. This compound registered a CP score in series [4] of 0. In the series with Pseudomonas aeruginosa, this compound registered a PA score of 0. Also, the IC50 on AtIspF is greater than 1 mM. Further, in the series on lettuce seeds (0.5 mM), the Bleaching worked out at 2, the Germination was determined as 2 and the “Root Dev.” value came to 0. Moreover, in the series on lettuce seeds (1.0 mM), the Bleaching worked out at 3, the Germination was found to be 2 and the “Root Dev.” value was 0. Also, the “STD-NMR binding to MaIspE” value in series [5] is on record as “bound”. This compound showed a KP score in the series with Klebsiella pneumonia of 0. Further, the CX score with Corynebacterium xerosis worked out at 0. Besides, in [6], the “MtIspD melting point change” value is 1.5 °C and the MtIspD melting temp is 49.5 °C. Further, the ML score with Micrococcus luteus is given as 0. In [7], the “STD-NMR binding to MpIspD” value was “bound”. Moreover, the BT score in series [8] is 0. Moreover, the EC score in the series with Escherichia coli is given as 0. Further, in the series with Mycobacterium smegmatis, the MS score worked out at 0. Moreover, the BC score with Bacillus cereus stood at 0.
Compound `FC(F)(F)c1ccc(-c2nnc(-c3cc4ccccc4[nH]3)o2)cc1` [HGN-214, 2-(1H-indol-2-yl)-5-(4-(trifluoromethyl)phenyl)-1,3,4-oxadiazole] returned a melting point of 258 to 260 °C. Moreover, in series [2], the “LeIspE melting point change” value is −1.00 °C and the LeIspE melting temp is 48.50 °C. For the same compound, the IC50 on LeIspE was 269 ± 23 µM. Further, the IC50 on AtIspD is greater than 1 mM. Besides, the “inhibition of E. coli IspD activity” value against E. coli IspD is given as “some activity”. In series [4], this compound showed a CP score of 0. In addition, the PA score in the series with Pseudomonas aeruginosa turned out to be 0. For the same compound, the IC50 on AtIspF is greater than 1 mM. In addition, in the series on lettuce seeds (0.2 mM), the Bleaching is on record as 0, the Germination was 0 and the “Root Dev.” value came out at 0. In the series on lettuce seeds (0.5 mM), the Bleaching was 0, the Germination is reported as 1 and the “Root Dev.” value is 0. In addition, in the series with lettuce seeds (1.0 mM), the Bleaching turned out to be 0, the Germination is 3 and the “Root Dev.” value is recorded as 0. The compound further yielded a KP score in the series with Klebsiella pneumonia of 0. For the same compound, at P. falciparum IspD, the IC50 was roughly 100 µM. Besides, the CX score in the series on Corynebacterium xerosis is listed as 0. The MtIspD melting temp in series [6] is 49.8 °C. The compound further displayed an ML score in the series on Micrococcus luteus of 0. Moreover, the BT score in series [8] stood at 0. The EC score in the series on Escherichia coli came out at 0. Further, the MS score in the series on Mycobacterium smegmatis was found to be 0. Besides, the BC score in the series with Bacillus cereus is reported as 0.
